Source: ChEMBL document CHEMBL3612062, “Antitumor activity of endoperoxide-iron chelator conjugates-design, synthesis and biological evaluation” (Eur J Med Chem, 2015)

How the values were obtained:
[1] = system: SMMC-7721; test: Cytotoxicity against human SMMC7721 cells after 48 hrs by MTT assay; assay type: functional, cell-based; conditions: SMMC-7721, 48 h
[2] = system: A549; test: Cytotoxicity against human A549 cells after 48 hrs by MTT assay; assay type: functional, cell-based; conditions: A549, 48 h
[3] = system: SW480; test: Cytotoxicity against human SW480 cells after 48 hrs by MTT assay; assay type: functional, cell-based; conditions: SW480, 48 h
[4] = Cytotoxicity against human HL7702 cells after 48 hrs by MTT assay; assay type: cell-based; conditions: L02, 48 h
[5] = system: HL-60; test: Cytotoxicity against human HL60 cells after 48 hrs by MTT assay; assay type: functional, cell-based; conditions: HL-60, 48 h
[6] = Metal chelating activity of the compound assessed as formation of iron-compound complex at 100 uM using FeSO4 by UV-vis spectrometry; assay type: physicochemical
[7] = Stability of the compound-ferric oxide complex; assay type: physicochemical
[8] = system: SMMC-7721; test: Increase of cell survival in human SMMC7721 at 50 uM after 48 hrs by MTT assay in presence of deferoxamine; assay type: functional
[9] = Metal chelating activity of the compound assessed as formation of iron-compound complex at 100 uM using FeCl3 by UV-vis spectrometry; assay type: physicochemical
[10] = Binding affinity to ferric oxide assessed as dissociation degree at 1:1 ligand to metal ratio by UV-visible spectrophotometry
[11] = system: SMMC-7721; test: Induction of apoptosis in human SMMC7721 cells at 10 uM after 24 hrs using annexin-V FITC and propidium iodide staining by flow cytometry analysis; assay type: functional
[12] = Binding affinity to ferric oxide assessed as dissociation degree at 2:1 ligand to metal ratio by UV-visible spectrophotometry
[13] = system: SMMC-7721; test: Induction of apoptosis in human SMMC7721 cells at 20 uM after 24 hrs using annexin-V FITC and propidium iodide staining by flow cytometry analysis; assay type: functional
[14] = system: SMMC-7721; test: Induction of apoptosis in human SMMC7721 cells after 24 hrs using annexin-V FITC and propidium iodide staining by flow cytometry analysis; assay type: functional, cell-based
[15] = Selectivity ratio of IC50 for human HL7702 cells to IC50 for human SMMC7721 cells; assay type: ADME, cell-based, SMMC-7721; conditions: HL7702 cells versus SMMC7721 cells, read-out: Ratio IC50
[16] = system: SMMC-7721; test: Cytotoxicity against human SMMC7721 cells assessed activity loss of cells at 5 uM after 48 hrs by MTT assay; assay type: functional

SMILES | IC50 [1] [µM] | IC50 [2] [µM] | IC50 [3] [µM] | IC50 [4] [µM] | IC50 [5] [µM] | Activity [6] | Stability [7] | Activity [8] [%] | Activity [9] | Activity [10] [%] | Activity [11] [%] | Activity [12] [%] | Activity [13] [%] | Activity [14] | selectivity ratio [15] | Activity [16] [%]
O=C(O)[C@H]1CC[C@]2(CC1)OO[C@]1(O2)C2CC3CC(C2)CC1C3 | > 100 | > 100 | > 100 | > 100 | > 100 |  |  |  |  |  |  |  |  |  |  | 
O=C1CCC2(CC1)OOC1(O2)C2CC3CC(C2)CC1C3 (centres undefined) | > 100 | > 100 | > 100 | > 100 | > 100 |  |  |  |  |  |  |  |  |  |  | 
O=C(NO)C1CCC2(CC1)OOC1(OO2)C2CC3CC(C2)CC1C3 (centres undefined) | > 50 | > 50 | > 50 | > 50 | > 50 |  |  |  |  |  |  |  |  |  |  | 
O=C(NC1CCC2(CC1)OOC1(OO2)C2CC3CC(C2)CC1C3)c1ccc(O)c(O)c1 (centres undefined) | 33.8 | > 50 | > 50 | > 50 | 25 | Active | Stable | 10 | Active | 36 |  |  |  |  |  | 
O=C(O)C1CCC2(CC1)OOC1(OO2)C2CC3CC(C2)CC1C3 (centres undefined) | > 100 | > 100 | > 100 | > 100 | > 100 |  |  |  |  |  |  |  |  |  |  | 
O=C(O)[C@H]1CC[C@@]2(CC1)OC[C@]1(OO2)C2CC3CC(C2)CC1C3 | > 100 | > 100 | > 100 | > 100 | > 100 |  |  |  |  |  |  |  |  |  |  | 
O=C1CCC2(CC1)OOC1(OO2)C2CC3CC(C2)CC1C3 | > 100 | > 100 | > 100 | > 100 | > 100 |  |  |  |  |  |  |  |  |  |  | 
O=C1CCC2(CC1)OCC1(OO2)C2CC3CC(C2)CC1C3 (centres undefined) | > 100 | > 100 | > 100 | > 100 | > 100 |  |  |  |  |  |  |  |  |  |  | 
Nc1ccc(O)c2ncccc12 | > 50 | > 50 | > 50 | > 50 | 13.8 |  |  |  |  |  |  |  |  |  |  | 
O=C(NO)[C@H]1CC[C@]2(CC1)OO[C@]1(O2)C2CC3CC(C2)CC1C3 (mixture of isomers) | > 50 | > 50 | > 50 | > 50 | > 50 |  |  |  |  |  |  |  |  |  |  | 
O=C(NO)[C@H]1CC[C@@]2(CC1)OC[C@]1(OO2)C2CC3CC(C2)CC1C3 (mixture of isomers) | > 50 | > 50 | > 50 | > 50 | > 50 |  |  |  |  |  |  |  |  |  |  | 
O=C(N[C@H]1CC[C@]2(CC1)OO[C@]1(O2)C2CC3CC(C2)CC1C3)c1ccc(O)c(O)c1 (mixture of isomers) | > 50 | > 50 | > 50 | > 50 | 31.2 |  |  | 10 |  |  |  |  |  |  |  | 
O=C(N[C@H]1CC[C@@]2(CC1)OC[C@]1(OO2)C2CC3CC(C2)CC1C3)c1ccc(O)c(O)c1 (mixture of isomers) | > 50 | > 50 | > 50 | > 50 | 34.8 |  |  | 10 |  |  |  |  |  |  |  | 
Oc1ccc(NC2CCC3(CC2)OOC2(OO3)C3CC4CC(C3)CC2C4)c2cccnc12 (mixture of isomers) | 7.5 | 11.8 | > 50 | 27.7 | 6 | Active | Stable | 15 | Active |  | 12.2 | 18 | 33.2 | Dose-dependent effect | 3.71 | 
Oc1ccc(N[C@H]2CC[C@]3(CC2)OO[C@]2(O3)C3CC4CC(C3)CC2C4)c2cccnc12 (mixture of isomers) | 7.3 | 15.9 | > 50 | 25.7 | 8.1 |  |  | 15 |  |  |  |  |  |  | 3.52 | 
Oc1ccc(N[C@H]2CC[C@@]3(CC2)OC[C@]2(OO3)C3CC4CC(C3)CC2C4)c2cccnc12 (mixture of isomers) | 11 | 23.9 | > 50 | 36 | 6.6 |  |  | 15 |  |  |  |  |  |  | 3.28 | 
O=C(N[C@H]1CC[C@]2(CC1)OC[C@]1(O2)C2CC3CC(C2)CC1C3)c1ccc(O)c(O)c1 (mixture of isomers) | > 50 | > 50 | > 50 | > 50 | 35.5 |  |  |  |  |  |  |  |  |  |  | 
O=C(NC1CCC2(CC1)OCC1(CO2)C2CC3CC(C2)CC1C3)c1ccc(O)c(O)c1 (mixture of isomers) | > 50 | > 50 | > 50 | > 50 | 30.1 |  |  |  |  |  |  |  |  |  |  | 
Oc1ccc(N[C@H]2CC[C@]3(CC2)OC[C@]2(O3)C3CC4CC(C3)CC2C4)c2cccnc12 (mixture of isomers) | 12.6 | 17.2 | > 50 | 30.1 | 9.2 |  |  |  |  |  |  |  |  |  | 2.39 | 
Oc1ccc(NC2CCC3(CC2)OCC2(CO3)C3CC4CC(C3)CC2C4)c2cccnc12 (mixture of isomers) | 20.3 | 45.6 | > 50 | 41.9 | 12.9 |  |  |  |  |  |  |  |  |  | 2.06 | 
C[C@H]1[C@@H](O)O[C@@H]2O[C@@]3(C)CC[C@H]4[C@H](C)CC[C@@H]1[C@@]24OO3 [ARTENIMOL] | 13.8 | 30.1 | > 100 | 34.9 | 18.7 |  |  |  |  |  |  |  |  |  | 2.52 | 
CC(=O)N(O)CCCCCNC(=O)CCC(=O)N(O)CCCCCNC(=O)CCC(=O)N(O)CCCCCN [DEFEROXAMINE] |  |  |  |  |  |  |  |  |  |  |  |  |  |  |  | 5
O=C(O)c1ccc(O)c(O)c1 [PROTOCATECHUIC ACID] | > 50 | > 50 | > 50 | > 50 | > 50 |  |  |  |  |  |  |  |  |  |  | 
